From US20210353593A1 (Chinook Therapeutics, Inc., priority 2019, published 2021)
“Also recorded” adds a separate entry of the source.

Legend:
[1] = patients with diabetic kidney disease; cited from earlier work
[2] = test system: IL-6 production in primary human mesangial cells; test: ET-1 induced IL-6 production (ELISA) in primary human renal mesangial cells; format: cell-based; details: 72 hours; 10 ng/mL ET-1; read-out: IC50, ET-1 stimulated IL-6 production in HRMCs
g-ddY mice = test: Albuminuria (UACR) in g-ddY mouse model of IgA nephropathy; format: in vivo
From the text: The grouped ddY (g-ddY) mouse is a spontaneous model of early-onset IgA nephropathy characterized by IgA immune complex deposition in the mesangium of the kidney, leading to significant proteinuria, glomerular hypercellularity, mesangioproliferative glomerular lesions, glomerular sclerosis and reduced kidney function, all hallmarks of human IgA nephropathy (J Am Soc Nephrol 23: 1364-1374, 2012). Consistent with human IgA nephropathy, the mesangial IgA deposits in the g-ddY mouse are also accompanied by deposition of IgG and complement C3.

[3] = 10 mg/kg/day, approximately 5 days

CCCCN(CCCC)C(=O)CN1C[C@H](c2ccc3c(c2)OCO3)[C@@H](C(=O)O)[C@@H]1c1ccc(OC)cc1 [Atrasentan, (2R,3R,4S)-4-(1,3-benzodioxol-5-yl)-1-[2-(dibutylamino)-2-oxoethyl]-2-(4-methoxyphenyl)pyrrolidine-3-carboxylic acid]
risk of renal events (doubling of serum creatinine or end-stage kidney disease) [1]: significantly reducing the risk of renal events
IC50 [2]: 650 pM
mice with reduced albuminuria (g-ddY mice; 10 mg/kg/day group): ⅔
reduction of UACR from baseline (g-ddY mice; 10 mg/kg/day in drinking water, approximately 5 days): 28±44%
albuminuria vs baseline (paired t-test) (g-ddY mice; [3]): not significantly changed from baseline
effect on UACR compared to control group (un-paired t-test) (g-ddY mice; [3]): not significant
reduction of UACR from baseline (g-ddY mice; 20 mg/kg/day in drinking water, approximately 5 days): 62±8%
effect on UACR compared to control group (un-paired t-test) (g-ddY mice; 20 mg/kg/day, approximately 5 days, P=0.0498): statistically significant compared to the control group; also recorded: significantly reduced albuminuria
albuminuria vs baseline (paired t-test) (g-ddY mice; 20 mg/kg/day, approximately 5 days, P=0.0593): reduced from baseline to a similar extent
reduction of UACR from baseline (g-ddY mice; 30 mg/kg/day in drinking water, approximately 5 days): 63±6%
albuminuria vs baseline (paired t-test) (g-ddY mice; 30 mg/kg/day, approximately 5 days): significantly (P=0.0002, paired two-sided t-test) reduced albuminuria from baseline
effect on UACR compared to control group (un-paired t-test) (g-ddY mice; 30 mg/kg/day, approximately 5 days, P=0.029): statistically significant compared to the control group; also recorded: significantly reduced albuminuria
magnitude of albuminuria lowering (reduction from baseline) (g-ddY mice; 20 and 30 mg/kg/day, approximately 5 days): > 60%
